This note sets out measurements from a melting point compilation (Tetko et al.; mined from patent text by program, amines drawn as free bases though some values may be those of a salt).

As a reminder, the melting point is the temperature of the solid-liquid transition.

The compound `COc1ccc2c(c1)C(=NOCCN1CCCC1)c1c-2c(N2CCNCC2)nc2ccccc12` displayed a melting point of 126 to 128 °C.

`Nc1nc(-c2cccc3ccc(Br)cc23)co1` registered a melting point of 189 to 190 °C.

As to `CN1c2ccccc2N(C(=O)c2ccc(-c3ccccc3)cc2)Cc2cccnc21`, the melting point was 220 to 223 °C.

On to `O=C(OCc1ccccc1)N1c2ccc(I)cc2CC1CO` (stereo not drawn), for which the melting point was in the range of 110 to 111 °C.

Regarding `O=C(Cc1c(-c2cccnc2)c2cc(CN3CCN(c4ccccc4)CC3)c(Cl)cc2oc1=O)Nc1ccc(Cl)cc1C(F)(F)F`, the melting point fell in the range of 214 to 216 °C.

`Cc1nc(N(C)C)nc(N)c1-c1cc(Cl)cc(Cl)c1Cl` returned a melting point of 151 to 153 °C.

`CCOC(=O)Cc1ccc(OCCCN2C(=O)c3ccccc3C2=O)c(OC)c1` had a melting point of 70 to 72 °C.

`O=C1c2c(ccc(F)c2Cl)-n2cnc(-c3cccc(Cl)c3)c2[C@@H]2CCCN12`: the melting point fell in the range of 238 to 239 °C.

With `Oc1cc2c(cc1OCCCOc1ccccc1)OCC2`, the melting point lay in the range of 106 to 107 °C.

As for `Cc1cccc(C(=O)O)c1N(C)S(=O)(=O)c1ccc(OCCCCNC(=O)c2cc3ccccc3o2)cc1`, the melting point was above 200 °C.

Compound `CCOc1ccc(-c2c(C)c3cc(O)ccc3n2Cc2ccc(OCCN3CCCCCC3)cc2)cc1` came in with a melting point of 133 to 135 °C.

`Cc1c(C)c2c(c(C)c1Br)C(c1ccc(-c3ccccc3)cc1)CO2` (stereo not drawn) came in with a melting point of 153 to 154 °C.

The compound `CS(=O)(=O)N1CCC2(CC1)OCCO2` returned a melting point of 107 to 109 °C.

Compound `O=C(O)C(=O)c1ccc(OCc2ccccc2)c(Cl)c1` gave a melting point of 134 to 135 °C.

`CCOCc1nc2c(N)nc3ccccc3c2n1CCNC(=O)OC(C)(C)C`: the melting point was 201 to 202 °C.

`COc1ccc(NC(=O)NCc2ccc3c(c2)CN(C2CCC(=O)NC2=O)C3=O)cc1OC` (stereo not drawn) returned a melting point of 216 to 218 °C.

As for `CNC(=O)COc1cccc2c1S(=O)(=O)N=C2C1=C(O)C(C(C)(C)C)N(Cc2ccc(F)cc2)C1=O` (stereo not drawn), the melting point is above 225 °C.

Regarding `CCOC(=O)c1c(CCc2c[nH]nn2)nc2sc3c(c2c1-c1ccc(OC)c(OC)c1)CCN(C(=O)c1ccccc1)C3`, the melting point was 184 to 185 °C.

`CCN(CC)c1ccc(N=Nc2ccc(C#N)c(C#N)c2)c(NC(C)=O)c1` gave a melting point of 181 to 182 °C.

The compound `Cc1ccc(S(=O)(=O)OCC2CC(=O)N(Cc3ccccc3)C2c2c(Cl)cccc2Cl)cc1` (stereo not drawn) showed a melting point of 110 to 114 °C.

As for `Cc1cc2c(cc1C13CC1CCC3=O)C(C)(C)CCC2(C)C` (stereo not drawn), the melting point is 152 to 154 °C.

Regarding `COC(=O)C(Cc1ccc(OCCc2nc(-c3ccccc3)oc2C)cc1)C(=O)N(C)C` (stereo not drawn), the melting point fell in the range of 114 to 115 °C.

On to `CN1CCN(c2nc3sc4c(NCc5ccccn5)ncnc4c3c3c2COC(C)(C)C3)CC1`, for which the melting point lay within 218 to 219 °C.

In the case of `COc1cc2c(c(OC)c1OC)C[C@@H](N1CCN(C(=O)C=Cc3ccccc3)CC1)[C@@H]2O` (relative stereo), the melting point fell in the range of 162 to 163 °C.

In turn, `CC(C)(C)c1cc(CN(c2cccnc2)S(=O)(=O)c2ccccc2Br)cc(C(C)(C)C)c1O` came in with a melting point of 105 to 107 °C.

In the case of `COCCNS(=O)(=O)c1cc2[nH]c(=O)c(=O)[nH]c2cc1[N+](=O)[O-]`, the melting point lay in the range of 320 to 321 °C.

With `CCOC(=O)c1ncc2[nH]c3ccc(C4CCCC(=O)C4)cc3c2c1C` (stereo not drawn), the melting point is 182 to 189 °C.

Compound `CCCCN1CCC2(CC1)OC(=O)c1ccccc12` came in with a melting point of 60 to 62 °C.

Compound `COc1cc(C(=O)O)ccc1-c1nc2cc3c(cc2[nH]1)NC(=O)C3(C)C` had a melting point of 315 to 319 °C.

`COCCC1CCN(c2ccc(C#N)c3sccc23)C1` (stereo not drawn) had a melting point of 88 to 89 °C.

The compound `NS(=O)(=O)CCCOc1ccc2ncnn2n1` displayed a melting point of 145 to 147 °C.

With `Nc1ccc(C(=O)c2ccccc2)cc1COC1CCCCO1` (stereo not drawn), the melting point was 164 °C.

On to `CNS(=O)(=O)C[C@H]1c2cc(OCCCC(F)(F)F)ccc2OC(C)(C)[C@@H]1O`, for which the melting point fell in the range of 178 to 179 °C.

Compound `CCOC(=O)C(C)(C)Oc1ccc(-c2ccc(CCNC(=O)c3ccc(OC)c(OC)c3)cc2)cc1` displayed a melting point of 118 °C.

Compound `CCOC(=O)/C=C\C(=O)Oc1cccc(-c2cn3c(n2)sc2ccccc23)c1` registered a melting point of 126 to 128 °C.

As for `CON=C(C(=O)OC)c1cccs1`, the melting point worked out at 106 °C.

With `CC(C)(C)NCC(O)c1ccc(O)c(NC=O)c1` (stereo not drawn), the melting point lay within 195 to 196 °C.

`CCOC(=O)C1=C(C)NC(N=CN2CCCCC2)=C(C(=O)OCC)C1c1ccccc1Cl` (stereo not drawn): the melting point is 145 °C.

With `CC(C)CC(=O)C(=O)NCC(=O)c1ccccc1`, the melting point was in the range of 193 to 195 °C.

Compound `O=S(=O)(c1ccc(F)cc1)c1ccc(SC2SCC(O)C(O)C2O)cc1` (stereo not drawn) gave a melting point of 136 to 138 °C.

The compound `C[C@@H](Cc1ccc(O)cc1)NS(=O)(=O)c1ccccc1` showed a melting point of 92 to 94 °C.

The compound `CCCCc1cccc(-c2nc(C(C)C)n(C)n2)n1` had a melting point of 58.1 °C.

With `COc1cc(NC(=O)Nc2ccc3c(c2)CCN(C(=O)Nc2ccc(OCC(O)CO)cc2Cl)C3)cc(OC)c1` (stereo not drawn), the melting point was 108 to 110 °C.

The compound `CCN(CC)C(=O)c1ccc(OC)cc1-c1ccccc1` returned a melting point of 64 to 65 °C.

As for `C=CC(=O)OCCOc1ccc(-c2nc(-c3ccc(C)cc3C)nc(-c3ccc(C)cc3C)n2)c(O)c1`, the melting point lay in the range of 128 to 129 °C.

As to `COC(=O)NC(=Nc1cc(OS(=O)(=O)c2cccc(C(F)(F)F)c2)ccc1NC(N)=O)NC(=O)OC`, the melting point amounted to 131 °C.

As to `COC(=O)CCCCCCC1C(=O)Cc2cc(OC)ccc21` (stereo not drawn), the melting point lay within 33.5 to 35 °C.

`CCCCNC(=N)NC(=O)NCCCC` had a melting point of 82 to 94 °C.

`COc1cc(OC)nc(NC(=O)NS(=O)(=O)c2ccccc2C2CCOC2=O)n1` (stereo not drawn): the melting point fell in the range of 164 to 166 °C.

Regarding `C#CCOc1cc(Cl)ccc1-n1c(=O)cc(C(F)(F)F)n(C)c1=O`, the melting point lay within 147 to 148 °C.

`Cc1c2ccccc2nc2ccc3nc4ccccc4c(C)c3c12` showed a melting point of 217 to 218 °C.

`Cc1nc(N2CCN(Cc3ccc(F)cc3)C2=O)sc1C(=O)NCc1cnn(C)c1` yielded a melting point of 173 to 175 °C.

Take `O=C(/C=C/c1cccnc1)NCCc1ccccc1O`: the melting point lay in the range of 170 to 172 °C.

On to `Clc1cc(Br)c2oc3c(Cl)c(Br)c(Cl)c(Br)c3c2c1`, for which the melting point lay in the range of 220 to 222 °C.

The compound `CCCCC[C@H]1CC[C@H](c2ccc(-c3nc(N)nc(N)n3)cc2)CC1` came in with a melting point above 250 °C.

On to `COc1ccc(C(=O)Nc2ccc(F)cc2)c2c1oc1ccccc12`, for which the melting point came out at 246 °C.

In turn, `COc1ccc(OC)c2c1CC1OC1C2` (stereo not drawn) gave a melting point of 130 to 132 °C.

As to `CC(=O)c1cc(-c2ccncc2)sc1N1CCN(C)CC1`, the melting point is 115 to 117 °C.

As to `CC1=C(C#N)C(c2cccc3nc(-c4ccccc4)sc23)C(C(=O)OC(C)C)=C(C)N1` (stereo not drawn), the melting point is 218 °C.

Compound `COc1ccnc(C(C)Sc2nc3cc4c(cc3[nH]2)OC(F)(F)O4)c1` (stereo not drawn) registered a melting point of 173 to 175 °C.

The compound `COc1cc2c(cc1OC)S(=O)(=O)N(C)C(C(N)=O)C2` (stereo not drawn) gave a melting point of 215 to 222 °C.

In the case of `CCNc1ccc(C(=O)OC)cc1`, the melting point fell in the range of 132 to 135 °C.

`CCCCCCCCCCCCCCCCCCOc1cc(OCCCOc2ccccc2)cc(C(=O)N(CC(=O)O)CC(=O)O)c1` showed a melting point of 86 to 90 °C.

`COC(=O)c1ccccc1C=C1C(=O)Nc2ccc(S(=O)(=O)NC(C)C)cc21`: the melting point was 271 to 273 °C.

`Clc1cccc(Oc2nccnc2Cl)c1` showed a melting point of 83 to 85 °C.

`CCN(C(=O)c1ccc2nonc2c1)C1CCCCC1` returned a melting point of 51 to 52 °C.

In the case of `Cc1c(NC(=O)c2ccc(-c3ccc(F)cc3)c(F)c2)ccc2cc(CN3CCCC3)cnc12`, the melting point lay in the range of 176 to 178 °C.

Regarding `CCOC(=O)N1CCN(c2ccc(O)cc2)CC1`, the melting point came out at 169 °C.

`CCCCOC(=O)c1c(-c2cnccn2)ssc1=S` showed a melting point of 127 °C.

For the compound `COc1cc(I)cc(C(N)=O)c1`, the melting point is 175 to 176 °C.

`COc1cc2ncc(C#N)c(Nc3cccc(Oc4ccccc4)c3)c2cc1OC` returned a melting point of 253 to 254 °C.

In the case of `COC(=O)C[C@]1(C)C[C@@H](COc2ccc(-c3ccc(C#N)cc3)cc2)NC1=O`, the melting point is 105 to 108 °C.

Compound `N#CCc1ccc(OCCCN2CCN(C34CC5CC(CC(C5)C3)C4)CC2)cc1` yielded a melting point of 136 to 138 °C.

`CCC(C)(C)Nc1c(N(Cc2ccc(Cl)cc2Cl)C(C)=O)c(=O)c1=O` came in with a melting point of 114 to 116 °C.

`COc1ccccc1CNc1ccc2cc(Nc3nnc(C)o3)ccc2n1` displayed a melting point of 183 °C.

Compound `COC(=O)c1cccc2[nH]ncc12` had a melting point of 153 to 155 °C.

`O=C(Nc1ccc(-n2nc(C(F)(F)F)cc2C(F)(F)F)cc1)C1CCCCCC1` gave a melting point of 174 to 175 °C.

Compound `Oc1nc2ccc(Cl)cc2nc1O` yielded a melting point above 260 °C.

The compound `Cc1c(CC(=O)O)c2cc(OCc3nc4ccccc4s3)ccc2n1Cc1ccc(Cl)cc1` returned a melting point of 175 to 176 °C.

`Nc1ccc(Br)cc1CC(F)(F)F` showed a melting point of 100 to 101 °C.

Regarding `CC(C)Sc1ccc(O)cc1O`, the melting point is 67 °C.

In turn, `Cc1cc(N)cnc1CCCC#N` showed a melting point of 103 to 105 °C.

Regarding `CCCCCCCC(=O)Oc1ccc(-c2nc(-c3ccc(N(C)C)cc3)c(C)[nH]2)cc1OC`, the melting point was 126 to 129 °C.

The compound `Cc1[nH]c2ccccc2c1C(C)c1cccnc1` (stereo not drawn) showed a melting point of 139 to 141 °C.

With `CC(C)(C)OC(=O)N[C@@H](Cc1ccc(OS(=O)(=O)C(F)(F)F)cc1)C(=O)OC(c1ccccc1)c1ccccc1`, the melting point was 110 to 112 °C.

In the case of `CC1(C)[C@H]2CC[C@@H](CC(=O)O)[C@@H]1C2`, the melting point fell in the range of 50 to 53 °C.

Compound `Cc1ccc(-n2nc(C(C)(C)C)cc2NC(=O)NCc2ccccc2Oc2ccnc(N3CCN(C)CC3)n2)cc1` registered a melting point of 150 °C.

Compound `Oc1cccc2[nH]c(-c3ccccc3)cc12` came in with a melting point of 120 to 123 °C.
